From the NIST ThermoML archive (doi:10.1016/j.jct.2009.11.014)

Conditions: Liquid; for mass density: vibrating tube; for viscosity: Stony Brook Scientific falling needle HPHTV-100 viscometer

CCCCCCCC[n+]1ccn(C)c1.F[B-](F)(F)F [1-methyl-3-octylimidazolium tetrafluoroborate]
Conditions	mass density [kg/m3]	viscosity [mPa·s]
283.15 K, 100 kPa	1114.58	–
283.15 K, 2000 kPa	1115.49	–
283.15 K, 4000 kPa	1116.46	–
283.15 K, 6000 kPa	1117.44	–
283.15 K, 8000 kPa	1118.4	–
283.15 K, 10000 kPa	1119.31	–
283.15 K, 12000 kPa	1120.25	–
283.15 K, 14000 kPa	1121.19	–
283.15 K, 20000 kPa	1123.96	–
283.15 K, 30000 kPa	1128.45	–
283.15 K, 40000 kPa	1132.79	–
283.15 K, 50000 kPa	1136.9	–
283.15 K, 60000 kPa	1140.94	–
283.53 K, 140 kPa	–	774.7
283.53 K, 680 kPa	–	781
283.55 K, 1680 kPa	–	793.9
283.55 K, 7960 kPa	–	878.4
283.6 K, 11830 kPa	–	908.6
283.6 K, 14620 kPa	–	950.1
283.61 K, 10090 kPa	–	894.7
283.63 K, 4380 kPa	–	815.4
283.65 K, 4110 kPa	–	811.4
283.67 K, 5540 kPa	–	834.1
283.72 K, 2750 kPa	–	803.7
288.15 K, 100 kPa	1111.12	–
288.15 K, 2000 kPa	1112.07	–
288.15 K, 4000 kPa	1113.07	–
288.15 K, 6000 kPa	1114.04	–
288.15 K, 8000 kPa	1115.03	–
288.15 K, 10000 kPa	1116.03	–
288.15 K, 12000 kPa	1116.94	–
288.15 K, 14000 kPa	1117.9	–
288.15 K, 20000 kPa	1120.72	–
288.15 K, 30000 kPa	1125.21	–
288.15 K, 40000 kPa	1129.56	–
288.15 K, 50000 kPa	1133.75	–
288.15 K, 60000 kPa	1137.81	–
293.15 K, 100 kPa	1107.68	–
293.15 K, 2000 kPa	1108.68	–
293.15 K, 4000 kPa	1109.68	–
293.15 K, 6000 kPa	1110.66	–
293.15 K, 8000 kPa	1111.66	–
293.15 K, 10000 kPa	1112.63	–
293.15 K, 12000 kPa	1113.61	–
293.15 K, 14000 kPa	1114.55	–
293.15 K, 20000 kPa	1117.38	–
293.15 K, 30000 kPa	1121.95	–
293.15 K, 40000 kPa	1126.31	–
293.15 K, 50000 kPa	1130.56	–
293.15 K, 60000 kPa	1134.64	–
293.65 K, 130 kPa	–	403.7
293.65 K, 2010 kPa	–	409.7
293.65 K, 4090 kPa	–	423
293.65 K, 4310 kPa	–	418.7
293.65 K, 6110 kPa	–	433.3
293.65 K, 6580 kPa	–	434.4
293.65 K, 8080 kPa	–	447.6
293.65 K, 10200 kPa	–	458.3
293.65 K, 12100 kPa	–	466.6
293.65 K, 14310 kPa	–	478.8
293.65 K, 14330 kPa	–	483.6
298.15 K, 100 kPa	1104.31	–
298.15 K, 2000 kPa	1105.26	–
298.15 K, 4000 kPa	1106.28	–
298.15 K, 6000 kPa	1107.31	–
298.15 K, 8000 kPa	1108.29	–
298.15 K, 10000 kPa	1109.29	–
298.15 K, 12000 kPa	1110.27	–
298.15 K, 14000 kPa	1111.29	–
298.15 K, 20000 kPa	1114.12	–
298.15 K, 30000 kPa	1118.74	–
298.15 K, 40000 kPa	1123.16	–
298.15 K, 50000 kPa	1127.47	–
298.15 K, 60000 kPa	1131.57	–
303.15 K, 100 kPa	1100.92	–
303.15 K, 2000 kPa	1101.88	–
303.15 K, 4000 kPa	1102.9	–
303.15 K, 6000 kPa	1103.93	–
303.15 K, 8000 kPa	1104.97	–
303.15 K, 10000 kPa	1105.98	–
303.15 K, 12000 kPa	1107.03	–
303.15 K, 14000 kPa	1107.96	–
303.15 K, 20000 kPa	1110.85	–
303.15 K, 30000 kPa	1115.56	–
303.15 K, 40000 kPa	1120.01	–
303.15 K, 50000 kPa	1124.34	–
303.15 K, 60000 kPa	1128.52	–
303.74 K, 13240 kPa	–	258.3
303.8 K, 2750 kPa	–	227.3
303.82 K, 14800 kPa	–	261.8
303.85 K, 4160 kPa	–	230.6
303.85 K, 5600 kPa	–	233.6
303.91 K, 8710 kPa	–	241.6
303.95 K, 11220 kPa	–	250.7
303.96 K, 160 kPa	–	219.1
304.01 K, 2040 kPa	–	222.9
304.03 K, 1190 kPa	–	221.6
304.05 K, 6140 kPa	–	232.1
304.05 K, 7390 kPa	–	238.6
308.15 K, 100 kPa	1097.49	–
308.15 K, 2000 kPa	1098.5	–
308.15 K, 4000 kPa	1099.56	–
308.15 K, 6000 kPa	1100.61	–
308.15 K, 8000 kPa	1101.64	–
308.15 K, 10000 kPa	1102.66	–
308.15 K, 12000 kPa	1103.66	–
308.15 K, 14000 kPa	1104.66	–
308.15 K, 20000 kPa	1107.61	–
308.15 K, 30000 kPa	1112.34	–
308.15 K, 40000 kPa	1116.89	–
308.15 K, 50000 kPa	1121.29	–
308.15 K, 60000 kPa	1125.53	–
312.95 K, 650 kPa	–	137.4
312.95 K, 1600 kPa	–	139.3
313.05 K, 130 kPa	–	137.3
313.05 K, 2670 kPa	–	141.1
313.05 K, 4260 kPa	–	142.8
313.05 K, 6130 kPa	–	145.7
313.05 K, 8180 kPa	–	150.2
313.05 K, 10130 kPa	–	152.7
313.05 K, 12200 kPa	–	157.1
313.05 K, 14260 kPa	–	161
313.15 K, 100 kPa	1094.13	–
313.15 K, 2000 kPa	1095.13	–
313.15 K, 4000 kPa	1096.26	–
313.15 K, 6000 kPa	1097.28	–
313.15 K, 8000 kPa	1098.3	–
313.15 K, 10000 kPa	1099.33	–
313.15 K, 12000 kPa	1100.39	–
313.15 K, 14000 kPa	1101.41	–
313.15 K, 20000 kPa	1104.39	–
313.15 K, 30000 kPa	1109.19	–
313.15 K, 40000 kPa	1113.81	–
313.15 K, 50000 kPa	1118.25	–
313.15 K, 60000 kPa	1122.52	–
318.15 K, 100 kPa	1090.78	–
318.15 K, 2000 kPa	1091.83	–
318.15 K, 4000 kPa	1092.91	–
318.15 K, 6000 kPa	1094	–
318.15 K, 8000 kPa	1095.03	–
318.15 K, 10000 kPa	1096.1	–
318.15 K, 12000 kPa	1097.15	–
318.15 K, 14000 kPa	1098.18	–
318.15 K, 20000 kPa	1101.2	–
318.15 K, 30000 kPa	1106.06	–
318.15 K, 40000 kPa	1110.72	–
318.15 K, 50000 kPa	1115.21	–
318.15 K, 60000 kPa	1119.54	–
323.15 K, 100 kPa	1087.45	–
323.15 K, 2000 kPa	1088.5	–
323.15 K, 4000 kPa	1089.6	–
323.15 K, 6000 kPa	1090.68	–
323.15 K, 8000 kPa	1091.76	–
323.15 K, 10000 kPa	1092.8	–
323.15 K, 12000 kPa	1093.87	–
323.15 K, 14000 kPa	1094.9	–
323.15 K, 20000 kPa	1097.97	–
323.15 K, 30000 kPa	1102.88	–
323.15 K, 40000 kPa	1107.6	–
323.15 K, 50000 kPa	1112.12	–
323.15 K, 60000 kPa	1116.48	–
323.43 K, 140 kPa	–	83.7
323.46 K, 680 kPa	–	84.3
323.55 K, 1710 kPa	–	85
323.56 K, 13080 kPa	–	96.3
323.58 K, 14330 kPa	–	97.4
323.63 K, 9640 kPa	–	92.7
323.65 K, 130 kPa	–	83.6
323.65 K, 2760 kPa	–	85.9
323.65 K, 6190 kPa	–	88.2
323.65 K, 11060 kPa	–	93.2
323.68 K, 4240 kPa	–	86.8
323.73 K, 8190 kPa	–	90.2
323.75 K, 10400 kPa	–	92.1
323.75 K, 12340 kPa	–	94
